The values below come from PubChem BioAssay (NCI).

Holding throughout (assay): NCI anticancer screen, dose series, 48 h
The subject of assay [1] is SW-620 colon.
The subject of assay [2] is T-47D breast.
Assay [3] concerns SF-539 CNS.
The subject of assay [4] is MDA-MB-231 breast.
Assay [5] has as its system M14 melanoma.
The subject of assay [6] is ACHN renal.
Assay [7] has as its system SK-MEL-2 melanoma.
Assay [8] relates to NCI-H460 lung.
In assay [9] the test system is CAKI-1 renal.
In assay [10] the test system is SNB-19 CNS.

The structures appear in SMILES notation.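 1) Cells in 96-well plates. 2) Compound, 48 h, 5 concentrations. 3) Linear interpolation between surrounding doses. 4) Unreached endpoint = highest concentration. TGI: total growth inhibition.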 A value given as a limit tells only on which side of the number the result lay.

With `C[C@@H]1CC[C@@]2(C)[C@H](C)/C(=C\COC(=O)/C=C/c3ccc(O)c(O)c3)CC[C@@]12C`, the TGI came to 23.6 µM in assay [1]; 34.7 µM in [2]; 16.2 µM in assay [3]; 20.5 µM in assay [4]; 26.1 µM in assay [5]; 16.6 µM in [6]. Further, the TGI was found to be 25.4 µM in assay [7], 13.5 µM in assay [8], 15 µM in assay [9] and 27.8 µM in assay [10].

As for `COC(=O)c1c2c(cc3c1CC1(C3)Cc3cc4c(c(C(=O)OC)c3C1)CCC4)CCC2`, the TGI in assay [2], in assay [3], in assay [4], in [5], in assay [6] and in assay [7] was greater than 100 µM throughout.

Consider `COCCCNc1c2ccccc2nc2ccccc12`, for which the TGI in [1] stood at 12.6 µM; in assay [2], 6.89 µM; in [3], 8.59 µM; in assay [4] it was 12.5 µM; in assay [5], 3.89 µM; in assay [6], 2.39 µM. The TGI was 4.89 µM in assay [7], 3.55 µM in assay [8], 3.75 µM in [9] and 6.41 µM in [10].

Consider `c1ccc(/C(=N/Nc2ccccn2)c2cccnn2)cc1`, for which the TGI in [1] was greater than 78.8 µM; in assay [2], greater than 100 µM; in [3], 24.9 µM; in [4], greater than 75.5 µM; in assay [5], 18.5 µM; in assay [6], 24.5 µM. For the same compound, the TGI in assay [7] was greater than 100 µM; in assay [8], greater than 100 µM; in assay [9] it was greater than 41.6 µM; in [10], greater than 86.9 µM.

Consider `O=C1c2ccccc2C(=O)N1NC1=NCCN1`, for which the TGI in [1], in assay [2], in assay [3], in [4], in [5] and in [6] was greater than 100 µM throughout. For the same compound, the TGI in assay [7], in [8], in assay [9] and in assay [10] was greater than 100 µM throughout.

For the compound `CC/C=C\C=C/C(=O)N/C=C/CCC`, the TGI in assay [1], in assay [2], in assay [3], in [4], in assay [5] and in assay [6] was greater than 100 µM throughout. In addition, the TGI in [7], in [8], in assay [9] and in [10] was greater than 100 µM each time.

In the case of `C/C(=N\O)c1cccc(Nc2c3ccccc3nc3occc23)c1`, the TGI in [2] is 21.7 µM; in [3], 21.1 µM; in [4] it was greater than 100 µM; in assay [5], greater than 100 µM; in assay [6], 38.6 µM; in assay [7] it was 25.2 µM. The TGI in assay [8] is greater than 100 µM; in assay [9], 9.3 µM; in assay [10], greater than 100 µM.

For the compound `S=C1NNC2(C(=S)N1)c1ccccc1-c1ccccc12`, the TGI in assay [1], in assay [2], in [3], in assay [4], in [5] and in assay [8] was greater than 10 µM in each case. In [9], this compound came in with a TGI greater than 10 µM.

For the compound `COC(=O)[C@H](Cc1ccccc1)NC(=O)N(CCNC(=O)OC(C)(C)C)c1ccccc1`, the TGI in [1], in assay [2], in assay [4], in assay [5], in assay [6] and in assay [7] was greater than 100 µM each time. Besides, the TGI in assay [8], in assay [9] and in assay [10] was greater than 100 µM in each case.

Consider `Cc1cc(N=Cc2c(CO)cnc(C)c2O)c(N=Cc2c(CO)cnc(C)c2O)cc1C`, for which the TGI in assay [1], in assay [2], in [3], in assay [4], in [5] and in assay [6] was greater than 100 µM each time. Besides, the TGI in assay [8], in assay [9] and in assay [10] was greater than 100 µM each time.

Regarding `CN(/N=C/C=N/N(C)C1=NCCN1)C1=NCCN1`, the TGI in [1], in assay [2], in [3], in assay [4], in [5] and in assay [6] was greater than 100 µM each time. Further, the TGI in [8], in assay [9] and in assay [10] was greater than 100 µM in each case.

Turning to `Cc1cccc(-c2nc(-c3cnccn3)n(Cc3ccccc3)n2)c1`, the TGI in [1], in [2], in assay [3], in assay [4], in [5] and in assay [8] was greater than 100 µM each time. Moreover, the TGI in [10] is greater than 100 µM.

In the case of `C=C(C)[C@H]1CC(=O)[C@@]2(C)C[C@H]3O[C@]3(C)CC/C=C(\C)CC[C@H]12`, the TGI in assay [1], in assay [2], in assay [3], in assay [4], in assay [6] and in assay [7] was greater than 100 µM throughout. Besides, the TGI in assay [8] was greater than 100 µM; in assay [9], 73 µM; in assay [10], greater than 100 µM.

For `O=C(O)c1ccc(Nc2cnc3cc(C(F)(F)F)ccc3n2)cc1`, the TGI was greater than 100 µM in [1]; 53.8 µM in assay [2]; greater than 100 µM in [3]; greater than 100 µM in assay [4]; greater than 100 µM in assay [6]; greater than 100 µM in [8]. Also, the TGI in assay [9] and in assay [10] was greater than 100 µM each time.

In the case of `Cc1ccc(-c2cc(=O)c(=O)[nH][nH]2)cc1`, the TGI in assay [1], in [2], in assay [3], in assay [4], in assay [5] and in [6] was greater than 100 µM each time. Moreover, the TGI in [7], in assay [8] and in assay [9] was greater than 100 µM in each case.
